Measurements taken from ChEMBL document CHEMBL1201862, “PubChem BioAssay data set” (2004).
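Where inhibition never reached the appropriate level, the endpoint shown equals the highest concentration tested. Otherwise, values were interpolated linearly from a five-concentration, 48-hour dose response in 96-well plates. GI50 is the concentration that inhibits growth by half.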 Activity calls are given as the source filed them. Rule as the data show it: active = GI50 up to about 1.1 µM and inactive = higher.

What was measured:
Experiment in all cases: growth of human tumour cells (NCI), 48 h
SK-MEL-2 = test system: SK-MEL-2
MDA-MB-435 = test system: MDA-MB-435
T47D = test system: T47D
DU-145 = test system: DU-145
ACHN = test system: ACHN
CCRF-CEM = test system: CCRF-CEM
SW-620 = test system: SW-620
EKVX = test system: EKVX
MCF7 = test system: MCF7
SN12C = test system: SN12C
SNB-19 = test system: SNB-19
OVCAR-5 = test system: OVCAR-5
NCI-H226 = test system: NCI-H226
SK-OV-3 = test system: SK-OV-3
SR = test system: SR
COLO 205 = test system: COLO 205
RPMI-8226 = test system: RPMI-8226
UO-31 = test system: UO-31
NCI/ADR-RES = test system: NCI/ADR-RES
HL-60 = test system: HL-60

Measured: GI50

CCc1ccccc1NC(=O)/C=C/c1ccccc1
inactive: SK-MEL-2 > 100 µM | MDA-MB-435 > 100 µM | T47D > 100 µM | DU-145 > 100 µM | ACHN > 100 µM | CCRF-CEM > 100 µM | SW-620 > 100 µM | EKVX > 100 µM | MCF7 > 100 µM | SN12C > 100 µM | SNB-19 > 100 µM | OVCAR-5 > 100 µM | NCI-H226 > 100 µM | SK-OV-3 > 100 µM | SR > 100 µM | COLO 205 > 100 µM | RPMI-8226 > 100 µM

CCOC(=O)c1c(SCc2cc(=O)[nH]c(=O)[nH]2)n(-c2ccccc2)c(=S)n(-c2ccccc2)c1=O
inactive: SK-MEL-2 > 100 µM | MDA-MB-435 > 100 µM | T47D > 100 µM | DU-145 > 100 µM | ACHN > 100 µM | CCRF-CEM > 100 µM | SW-620 > 100 µM | UO-31 > 100 µM | EKVX > 100 µM | MCF7 > 100 µM | NCI/ADR-RES > 100 µM | SN12C > 100 µM | SNB-19 > 100 µM | OVCAR-5 > 100 µM | SK-OV-3 > 10 µM | COLO 205 > 100 µM | RPMI-8226 > 100 µM

CCOC(=O)NC(NCC(O)c1ccccc1)(C(F)(F)F)C(F)(F)F (centres undefined)
inactive: SK-MEL-2 > 100 µM | MDA-MB-435 > 100 µM | T47D > 100 µM | DU-145 > 100 µM | ACHN > 100 µM | CCRF-CEM > 100 µM | SW-620 > 100 µM | UO-31 > 100 µM | EKVX > 100 µM | MCF7 > 100 µM | SN12C > 100 µM | SNB-19 > 100 µM | OVCAR-5 > 100 µM | NCI-H226 > 100 µM | HL-60 > 100 µM | SK-OV-3 > 100 µM | SR > 100 µM | RPMI-8226 > 100 µM

COc1ccc2c(c1)OCC1=C2Oc2ccccc2C1
inactive: SK-MEL-2 26.5 µM | MDA-MB-435 26.5 µM | T47D 36.1 µM | DU-145 83.9 µM | ACHN 37.4 µM | SW-620 30.2 µM | UO-31 50.4 µM | EKVX 30.3 µM | NCI/ADR-RES 44.4 µM | SN12C 39.3 µM | OVCAR-5 30.1 µM | NCI-H226 27 µM | HL-60 14.8 µM | SK-OV-3 85.3 µM | SR 26.9 µM | COLO 205 22.5 µM | RPMI-8226 23.1 µM
